# Columns and labels:
# [1] = test system: luciferase-transfected PANC-1 cells; assay: Histological study of harvested tumors (H&E, Ki67); assay type: in vivo, NOD-SCID-Gamma (NSG) mice
# Experimental: (§1) 6-8 weeks old male and female NOD-SCID-Gamma (NSG) mice were obtained from NCI and housed in the institutional animal facilities. About 1×10^6 luciferase-transfected PANC-1 cells suspended in 50 μL PBS were injected orthotopically into the pancreas of the mice. Tumors were allowed to grow for three weeks. Then, mice were randomized into four groups of ten (5 male mice and 5 female mice in each group), and 50 μg/mouse Gem, GNP-Gem with an equivalent Gem amount, or unconjugated GNPs were injected intraperitoneally three times a week for three weeks. Tumor growth was measured weekly using an IVIS bio-imager after injecting Luciferin. After three weeks of treatment, mice were sacrificed, and tumors were harvested, measured with slide calipers, and weighed. Tumor volumes were calculated using the formula: V=0.5 X a X b^2, where ‘a’ is the longest tumor axis, and ‘b’ is the shortest tumor axis.
# Tumors were harvested and fixed in neutral buffered 10% formalin at room temperature for 24 hours prior to embedding in paraffin and sectioning. Sections were deparaffinized and then subjected Hematoxylin and Eosin (H&E) and Ki67 staining according to manufacturer's instructions (DAB 150, Millipore). Stable diaminobenzidine was used as a chromogen substrate, and the sections were counterstained with a hematoxylin solution. Slides were digitized with Aperio AT2 slide scanner (Leica) and analyzed with imagescope software (Leica).
# AsPC-1 cells = assay: In vitro cell viability assay (MTS); assay type: cell-based; conditions: AsPC-1, 1 hour treatment, MTS after 72 hours
# Experimental: About 5×10^3 cells were seeded in 96-well plates and treated with increasing doses of GNP, Gem, and GNP-Gem diluted in respective media. After a 1-hour incubation, cells were washed thrice with PBS, overlaid with 100 μL media containing serum and antibiotics, and incubated for another 72 hours. At the end of the incubation, cell viability was measured using Celltiter 96 Aqueous One Solution Cell Proliferation Assay (Promega) as per the manufacturer's protocol. Briefly, the media containing the treatments were aspirated from the plate and washed with PBS. Then, 100 μL media containing 20 μL One Solution reagent was added to each well. The plate was incubated at 37° C. for 30 minutes, and absorbance at 492 nm was measured using Spectramax i3x. Percentage viability was calculated as follows: Viability (%)=100* (ATreated−ABlank)/(AUntreated−ABlank).
# To this end, two commercially available pancreatic cancer cell lines were selected (AsPC-1 and PANC-1, obtained from ATCC). The cells were treated with increasing doses of GNP, Gem, and GNP-Gem for 1 hour. After 1 hour, cells were washed three times with PBS to remove the treatments completely in order to reduce any non-specific effect, and fresh media was added to the cells. The cell viability measurement was performed by MTS assay after 72 hours (FIG. 4A-B).
# [2] = test system: luciferase-transfected PANC-1 cells; assay: In vivo tumor growth inhibition, orthotopic PANC-1 xenograft; design: species or system NOD-SCID-Gamma (NSG) mice; conditions: after three weeks of treatment
# Experimental: as §1
# About, 1×10^6 luciferase transfected PANC-1 cells were orthotopically implanted in the pancreas of 6-8 weeks old NSG mice. After three weeks, mice were imaged noninvasively using the Xenogen instrument to confirm tumor growth and then randomized into four groups before the initiation of treatment. Both male and female mice were included in the experiment to delineate any differential sex-dependent therapeutic effect of GNP-Gem. The experiment was terminated after three weeks of treatment. […] FIG. 5C depicts the tumor growth curve as measured by luciferase bioluminescence for female and male mice separately or in combination.
compound,measurement,setting,value
"Nc1ccn([C@@H]2O[C@H](CO)[C@@H](O)C2(F)F)c(=O)n1 [Gem, Gemcitabine]","percentage of Ki67-positive nuclei, mean",[1]; female and male combined,31.4%
same,"percentage of Ki67-positive nuclei, median",[1]; female and male combined,32.07%
same,"percentage of Ki67-positive nuclei, mean",[1]; female mice,31.3%
same,"percentage of Ki67-positive nuclei, median",[1]; female mice,32.3%
same,"percentage of Ki67-positive nuclei, mean",[1]; male mice,31.5%
same,"percentage of Ki67-positive nuclei, median",[1]; male mice,31.4%
same,effect on cell viability,AsPC-1 cells,dose dependent effect
same,"tumor volume, mean",[2]; female and male combined,251 mm^3
same,"tumor volume, median",[2]; female and male combined,250 mm^3
same,"tumor weight, mean",[2]; female and male combined,310.86 mg
same,"tumor weight, median",[2]; female and male combined,280.35 mg
same,"tumor volume, mean",[2]; female mice,254.8 mm^3
same,"tumor volume, median",[2]; female mice,254.6 mm^3
same,"tumor weight, mean",[2]; female mice,295.9 mg
same,"tumor weight, median",[2]; female mice,272.4 mg
same,"tumor volume, mean",[2]; male mice,247.17 mm^3
same,"tumor volume, median",[2]; male mice,245.3 mm^3
same,"tumor weight, mean",[2]; male mice,325.8 mg
same,"tumor weight, median",[2]; male mice,288.3 mg
